For orientation: IC50 means the concentration at which inhibition is half-maximal. Lower therefore signals greater potency in that assay.

For assay [1], the target named is T1, free rHDHFR (Homo sapiens, UniProt P00374).
T1 sequence (P00374 1-187): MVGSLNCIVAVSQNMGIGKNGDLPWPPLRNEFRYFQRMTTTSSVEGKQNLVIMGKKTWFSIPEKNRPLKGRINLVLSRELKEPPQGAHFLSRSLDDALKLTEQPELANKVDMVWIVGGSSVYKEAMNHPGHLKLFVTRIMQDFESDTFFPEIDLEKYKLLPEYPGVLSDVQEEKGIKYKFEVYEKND
As to the kind of experiment: Binding of EGCG to free DHFR by quenching of enzyme fluorescence. The settings on record: read-out: dissociation constant. The procedure:
The binding of EGCG to free DHFR was determined by following the decrease in enzyme fluorescence that occurs on formation of the enzyme-inhibitor complex. […] The binding of EGCG quenches this fluorescence. The data for the resulting titration curves were used for dissociation constant determinations.

Assay [2] deals with L1210 cells. As to the kind of experiment: EGCG cytotoxicity / growth of L1210 cells. The format is cell-based, mouse. On the procedure:
L1210 cells were plated at a density of 10,000 cells/ml in 96-well plates with a “standard folate” RPMI 1640 medium supplemented with 10% FCS. Reversion experiments were carried out in an HT medium and/or by adding 50 μM ascorbic acid (AA). Cell injury was evaluated by a calorimetric assay for mitochondrial function using the MTT test.^29
The effect of different EGCG concentrations on L1210 cell growth after 29 h of treatment at two different folic acid concentrations was determined. The cells were previously adapted over a period of 2-3 days to grow in folate-free RPMI 1640 medium supplemented with 10% dialyzed FCS and 2 mM glutamine. This medium is subsequently referred to as LF (low folate). For the cytotoxicity assay, the cells were grown in LF media supplemented with folic acid (3 μM or 300 nM). Treatments were carried out in triplicate, and each experiment performed at least twice. Cell growth was determined by two different methods, Coulter counter Z2 and hemocytometer (FIG. 7). IC50 values were determined at each folic acid concentration added to the medium.
The growth-inhibitory effects of 10 μM EGCG at various folic acid concentrations were determined at two different time intervals. L1210 cells were cultured in a LF medium supplemented with the corresponding folic acid concentration. The data were obtained by using a Coulter counter and hemocytometer and expressed assuming a zero percentage of growth inhibition for untreated control (FIG. 8). Cells were maintained in the corresponding medium with 100 μg/ml of penicillin and streptomycin at 37° C. in a humid 7.5% CO2, […] environment for all the experiments.

Turning to (−)-epigallocatechin gallate [EGCG], the Kd in assay [1] is 0.8 µM. Also, the “growth inhibition in HT medium containing ascorbic acid, NAC or SOD” value in assay [2] (L1210, EGCG 20 μM) is given as “completely removed the inhibitory effect”. The “growth inhibition with ascorbic acid in the medium” value in assay [2] (L1210, EGCG 20 μM, antioxidant ascorbic acid) is given as “partially lifted”. For the same substance, the “growth inhibition in HT medium, low folate” value in assay [2] (L1210, LF medium (30 nM folic acid), EGCG 1 μM) was “completely reversed”. Moreover, the “growth inhibition in HT medium” value in assay [2] (L1210, hypoxanthine-thymidine (HT) medium, EGCG 20 μM) is “high level of inhibition reversal”. Besides, in assay [2] (RPMI 1640 medium with 10% FCS (standard folate)), the IC50 was found to be 20 µM.

Source of the values: US20070249545A1, “DIHYDROFOLATE REDUCTASE INHIBITION BY EPIGALLOCATECHIN GALLATE COMPOUNDS” (priority 2004, published 2007).
